From patent US5750782A, “Nitroaniline derivatives and their use as anti-tumour agents” (priority 1996, dated 1998)

B1: Nitroreductase: E. coli nitroreductase (protein, UniProt P38489 1-217, looked up)
Oxygen-insensitive NAD(P)H …: MDIISVALKRHSTKAFDASKKLTPEQAEQIKTLLQYSPSSTNSQPWHFIVASTEEGKARVAKSAAGNYVFNERKMLDASHVVVFCAKTAMDDVWLKLVVDQEDADGRFATPEAKAANDKGRKFFADMHRKDLHDDAEWMAKQVYLNVGNFLLGVAALGLDAVPIEGFDAAILDAEFGLKEKGYTSLVVVPVGHHSVEDFNATLPKSRLPQNITLTEV

What was measured:
[1] = test system: AA8; test: Growth inhibition (IC50), AA8 cells, aerobic; type: cell-based; conditions: 18 h exposure
Method: (§1) Growth inhibition studies were performed as described in detail elsewhere (W.R. Wilson, R.F. Anderson and W.A Denny. J Med. Chem., 1989, 32, 23; G.J. Finlay, B.C. Baguley and W.R. Wilson. Anal Biochem., 1984, 139, 172.), using 200 viable AA8 or 300 viable UV4 cells plus 5000 lethally-irradiated AA8 feeder cells per well in 96-well tissue culture dishes. AA8 and UV4 cells were maintained in logarithmic-phase growth in […] tissue culture flasks with subculture twice weekly by trypsinization. The growth medium was antibiotic-free α-MEM with 10% v/v heat-inactivated ([…], 40 min) fetal calf serum. Doubling times were approximately 14h for AA8 and 15h for UV4 cells.

[2] = test system: AA8 and UV4 cell lines; test: Ratio of IC50 values against AA8 and UV4 cell lines (HFair); type: cell-based; conditions: 18 h exposure
Method: as §1
Ratio of IC50 values for a compound after exposure as detailed above against AA8 and UV4 cell lines (HF=IC50 (AA8)/IC50 (UV4)).

[3] = test system: UV4 cells; test: Clonogenic assay, UV4 cells (CT10), aerobic and hypoxic; type: cell-based; conditions: for CT10 ratio (air/N2): UV4 cells, aerobic CT10/hypoxic CT10; for CT10 (UV4): air, concentration x time to reduce UV4 cell survival to 10% of control
Source text: The product (in μM-hr) of the drug concentration times the exposure time to reduce cell survival to 10% of control values in the clonogenic assay.
Ratio of CT10 values after exposure of UV4 cells as detailed above under either aerobic (air) or hypoxic (N2) conditions (=aerobic CT10 /hypoxic CT10).

[4] = test system: UV4; test: Growth inhibition (IC50), UV4 cells, aerobic; type: cell-based; conditions: air, 18 h exposure
Method: as §1

[5] = test system: UV4 cell line; test: Ratio of IC50 values against UV4 cell line in presence and absence of E. coli nitroreductase enzyme NTR-2; type: cell-based; conditions: air, ratio of IC50 in presence and absence of E. coli nitroreductase NTR-2, 1080 min
Method: as §1
Ratio of IC50 values for a compound after exposure as detailed above against the UV4 cell line in the presence and absence of the E. coli nitroreductase enzyme NTR-2.

[6] = test system: V79 cells; conditions: +Nitroreductase alone (2 μg/ml); 2 h, 37° C
Method: The nitroreductase concentration was 2 μg/ml and NADH was used as a co-factor. The initial cell density was 2×10^5 /mL.

Row | Molecule | IC50 ([1]; air) [µM] | HF (air) = IC50 (AA8)/IC50 (UV4) [2] | CT10 ratio (air/N2) [3] | CT10 (UV4) [3] [μM-h] | IC50 [4] [µM] | HF (NR-2) [5] | IC50 ([1]; Cricetulus griseus, CHO-AA8, air) [µM] | IC50 ([4]; Cricetulus griseus) [µM] | % SURVIVAL [6] [%]
1 | O=C(NCCN1CCOCC1)c1cc(N(CCCl)CCCl)c([N+](=O)[O-])cc1[N+](=O)[O-] [Compound 12, N-[2-(morpholino)ethyl][N,N-bis(2-chloroethyl)amino]-2,4-dinitrobenzainide] | 920 | 3.0 | 45 | 3700 | – | – | – | – | –
2 | CN(C)CCNC(=O)c1cc([N+](=O)[O-])cc([N+](=O)[O-])c1N(CCCl)CCCl [Compound 20, N-(N,N-dimethylaminoethyl) 2-[N,N-bis(2-chloroethyl)amino]-3,5-dinitrobenzamide] | 150 | 14 | 36 | 1200 | – | – | – | – | –
3 | CN(C)C(=O)c1cc(N(CCCl)CCCl)c([N+](=O)[O-])cc1[N+](=O)[O-] [Compound 9, N,N-dimethyl [N,N-bis(2-chloroethyl)amino]-2,4-dinitrobenzainide] | 310 | 1.4 | > 20 | > 3500 | – | – | – | – | –
4 | NC(=O)c1cc(N(CCI)CCI)c([N+](=O)[O-])cc1[N+](=O)[O-] [Compound 3, 5-[N,N-bis(2-iodoethyl)amino]-2,4-dinitrobenzamide] | 34 | 2.6 | 42 | 170 | 15 | 73.8 | – | – | –
5 | NC(=O)c1cc([N+](=O)[O-])c(N(CCCl)CCCl)c([N+](=O)[O-])c1 [Compound 23, 4-[N,N-bis(2-chloroethyl)amino]-3,5-dinitrobenzamide] | 97 | 1.4 | > 1 | > 450 | – | – | – | – | –
6 | O=C(NCC(O)CO)c1cc(N(CCCl)CCCl)c([N+](=O)[O-])cc1[N+](=O)[O-] (centres unmarked) [Compound 17, N-(2,3-dihydroxypropyl)5-[N,N-bis(2-chloroethyl)amino]-2,4-dinitrobenzarnide] | 1790 | 3.2 | 14 | 3340 | – | – | – | – | –
7 | C[N+](C)([O-])CCNC(=O)c1cc(N(CCCl)CCCl)c([N+](=O)[O-])cc1[N+](=O)[O-] [Compound 14, N-(N^1,N^1-dimethylaminoethyl) [N,N-bis(2-chloroethyl)amino]-2,4-dinitrobenzamide N^1-oxide] | 7300 | 1.7 | < 10 | < 14400 | – | – | – | – | –
8 | CN(C)CCNC(=O)c1c([N+](=O)[O-])ccc(N(CCCl)CCCl)c1[N+](=O)[O-] [Compound 22, N-(N,N-dimethylaminoethyl) 3-[N,N-bis(2-chloroethyl)amino]-2,6-dinitrobenzamide] | 426 | 3.2 | 130 | 3600 | – | – | – | – | –
9 | NC(=O)c1c([N+](=O)[O-])ccc(N(CCCl)CCCl)c1[N+](=O)[O-] [Compound 21, 3-[N,N-bis(2-chloroethyl)amino]-2,6-dinitrobenzamide] | > 240 | > 2 | > 3 | > 300 | – | – | – | – | –
10 | CS(=O)(=O)OCCN(CCOS(C)(=O)=O)c1cc(C(N)=O)c([N+](=O)[O-])cc1[N+](=O)[O-] [Compound 4, 5-[N,N-bis(2-methanesulfonoxyethyl)amino]-2,4-dinitrobenzamide] | – | – | 17 | 1200 | – | 10.0 | > 200 | 99 | –
11 | O=C(c1cc(N(CCCl)CCCl)c([N+](=O)[O-])cc1[N+](=O)[O-])N1CCOCC1 [Compound 10, N-morpholino [N,N-bis(2-chloroethyl)amino]-2,4-dinitrobenzamiide] | 264 | 23 | 1.6 | 156 | – | – | – | – | –
12 | NC(=O)c1cc([N+](=O)[O-])cc([N+](=O)[O-])c1N(CCCl)CCCl [Compound 19, 2-[N,N-bis(2-chloroethyl)amino]-3,5-dinitrobenzamide] | > 100 | ca. 3 | > 5 | > 300 | – | – | – | – | –
13 | O=C(O)c1cc(N(CCCl)CCCl)c([N+](=O)[O-])cc1[N+](=O)[O-] [Compound 6, 5-[N,N-bis(2-chloroethyl)amino]-2,4-dinitrobenzoicacid] | 10600 | 1.5 | > 2 | > 30000 | 317 | 0.76 | – | – | –
14 | O=C(O)CCNC(=O)c1cc(N(CCCl)CCCl)c([N+](=O)[O-])cc1[N+](=O)[O-] [Compound 15, N-(2-carboxyethyl) 5-[N,N-bis(2-chloroethyl)amino]-2,4-dinitrobenzamide] | 6100 | 1.1 | 2 | 14000 | – | – | – | – | –
15 | NC(=S)c1cc(N(CCCl)CCCl)c([N+](=O)[O-])cc1[N+](=O)[O-] [Compound 13, 5-[N,N-bis(2-chloroethyl)amino]-2,4-dinitrothiobenzamide] | > 25 | > 2 | > 3 | > 60 | – | – | – | – | –
16 | NC(=O)c1cc(N(CCBr)CCBr)c([N+](=O)[O-])cc1[N+](=O)[O-] [Compound 2, 5-[N,N-bis(2-bromoethyl)amino]-2,4-dinitrobenzamide] | 57 | 7.5 | 20 | 160 | 10.9 | 32.3 | – | – | –
17 | NS(=O)(=O)c1cc(N(CCCl)CCCl)c([N+](=O)[O-])cc1[N+](=O)[O-] [Compound 18, 5-[N,N-bis(2-chloroethyl)amino]-2,4-dinitrobenzenesulfonamide] | 3 | – | – | – | – | – | – | – | –
18 | N#Cc1cc(N(CCCl)CCCl)c([N+](=O)[O-])cc1[N+](=O)[O-] [Compound 7, 5-[N,N-bis(2-chloroethyl)aminol]-2,4-dinitrobenzonitrile] | 24 | 6.8 | 8.5 | 86 | 2.3 | 9.2 | – | – | –
19 | CN(C)CCNC(=O)c1cc([N+](=O)[O-])c(N(CCCl)CCCl)c([N+](=O)[O-])c1 [Compound 24, N-(N,N-dimethylaminoethyl) 4-[N,N-bis(2-chloroethyl)amino]-3,5-dinitrobenzamide] | 62 | 2.0 | > 1 | > 273 | – | – | – | – | –
20 | B1 | – | – | – | – | – | – | – | – | 94
